Source: US20050175535A1 (CV Therapeutics, Inc., priority 2000, published 2005)

Columns and labels:
A1 adenosine receptor = molecular target: T1, A1 adenosine receptor (Rattus norvegicus, UniProt P25099); test: A-V nodal conduction time (negative dromotropic effect) in isolated rat hearts
T1 construct: Effect of concentration on AV conduction time and coronary conductance in isolated rat hearts; tissue Simonsen Laboratories (Gilroy, Calif.); host or cells: isolated perfused rat heart (Sprague Dawley)
T1 sequence (P25099 1-326): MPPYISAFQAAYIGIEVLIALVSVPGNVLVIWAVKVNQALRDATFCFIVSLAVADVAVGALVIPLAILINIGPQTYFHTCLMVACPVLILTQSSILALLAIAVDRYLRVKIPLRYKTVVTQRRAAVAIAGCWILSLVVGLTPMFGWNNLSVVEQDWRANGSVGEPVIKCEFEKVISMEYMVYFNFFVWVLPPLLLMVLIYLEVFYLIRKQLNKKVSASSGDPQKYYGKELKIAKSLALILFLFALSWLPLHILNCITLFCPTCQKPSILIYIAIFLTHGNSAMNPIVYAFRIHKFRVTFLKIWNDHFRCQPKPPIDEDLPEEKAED

[1] = Coronary blood flow and hemodynamics in conscious dogs; type: in vivo; conditions: for ED50: Canis lupus familiaris, read-out: ED50, increase in mean CBF
Protocol: Ten mongrel dogs (weighing 23-27 kg) were premedicated with Acepromazine (0.3 mg/kg im) and anesthetized with sodium pentobarbital (25 mg/kg) and then intubated and ventilated with room air. A thoracotomy was performed in the left fifth intercostal space using sterile surgical techniques. A Tygon catheter (Cardiovascular Instruments, Inc.) was placed in the descending thoracic aorta for the measurements of blood pressure. A solid-state pressure gauge (P6.5, Konisberg Instrument, Inc) was placed in the apex of the left ventricle for the measurement of the left ventricular systolic pressure (LVSP) and calculation of first derivative of left ventricular pressure (LV dP/dt). A Doppler transducer (Craig Hartley) was placed on the left circumflex coronary artery for measurement of CBF. An hydraulic coronary occluder (In Vivo Metric, Inc) was implanted in 4 dogs around the left circumflex coronary artery. The chest was closed in layers and the catheters and wires were run subcutaneously and exited in the interscapular area. The dogs were allowed 10 to 14 days to recover fully from the surgery and were trained to lie on a laboratory table. The protocols were approved by the Institutional Animal Care and Use Committee of New York Medical College and conform to the “Guiding Principles for the use and Care of Laboratory Animals” of the National Institute of Health and the American Physiology Society.
Arterial pressure was measured by connecting the previously implanted catheter to a strain-gauge transducer (P231D, Statham) and mean arterial pressure (MAP) was derived using 2-Hz low-pass filter. […] Left circumflex CBF was measured using a pulsed Doppler flowmeter (System 6, Triton technology), and mean CBF was derived using a 2-Hz low-pass filter. Mean CR was calculated as the quotient of MAP and CBF. Heart rate was monitored from the pressure pulse interval using a cardiotachometer (Beckman Instruments). The lead-2 of the electrocardiogram was recorded during the experiments in order to examine the alterations in the AV nodal conduction (PR interval). All signals were recorded on a direct-writing oscillograph (Gould 2800).
Hemodynamics were measured before, during and after each dose. Following each dose hemodynamics were allowed to return to baseline before the administration of the next dose. Changes in heart rate, blood pressure, CBF, and ECG were recorded.
Hemodynamic results are expressed as mean±SEM. […] Because no statistical differences were found among the baseline values between each dose for each parameter measure, the first baseline registered during each experiment was used as the control value.

[2] = Coronary blood flow and reversal time, intracoronary infusion in open-chest anesthetized pigs; type: in vivo; conditions: 50 ug/kg/min intracoronary
Protocol: The magnitude of the effect of A2A adenosine receptor agonists on coronary dilation and the duration of the effect was determined in pigs weighing 22-27 kg. […] In addition, animals were used in accordance with the guidelines of the University of Kentucky Institutional Animal Care and Use Protocol.
Anesthesia was maintained with additional sodium pentobarbital (1.5-2 mg/kg, i.v.) every 15-20 minutes. Animals were ventilated via a tracheotomy tube using a mixture of room air and 100% O2. Tidal volume, respiratory rate and fraction of O2 in inspired air were adjusted to maintain arterial blood gas (ABG) and pH values. […] Lactate Ringers solution was administered via an ear or femoral vein as an initial bolus of 300-400 ml followed by a continuous infusion at a rate of 5-7 ml/kg/hr. A catheter was inserted into the femoral artery to monitor arterial blood pressure.
The heart was exposed through a median sternotomy and suspended in a pericardial cradle. Left ventricular pressure (LVP) was measured with a 5F high fidelity pressure sensitive tip transducer (Millar Instruments, Houston, Tex.) placed in the left ventricular cavity via an apical incision and secured with a purse string suture. A segment of the left anterior descending coronary artery (LAD), proximal to the origin of the first diagonal branch, was dissected free of surrounding tissue. A transit time perivascular flow probe (Transonic Systems Inc., Ithaca, N.Y.) was placed around this segment to measure CBF. Proximal to the flow probe, a 24-gauge modified angiocatheter was inserted for intracoronary infusions. […] The A2A adenosine receptors agonists were administered intracoronary.
Relationship between affinity of various agonists for A2A adenosine receptor and the reversal time of their effect to increase coronary conductance was determined in pigs. Each experiment was preceded by a 30-minute stabilization period following the completion of all instrumentation of the animal. Baseline hemodynamic data were then recorded and an intracoronary infusion of an A2A Adenosine receptors agonist was initiated. Each infusion was maintained for 4-5 minutes to allow LAD CBF to reach a steady-state, after which the infusion was terminated. The times to recovery of CBF by 50% (t0.5) and 90% (t0.9) of the difference from peak effect to baseline CBF were recorded. Ten to 15 minutes after CBF returned to pre-drug values a second infusion with a different agonist was started. […] Hemodynamic measurements were made prior to and following the initiation of the phenylephrine infusion. The phenylephrine infusion rate was adjusted during and following the infusions of the adenosine receptor agonists to maintain arterial blood pressure within 5 mmHg of pre-infusion values. The effect of a maximum of three different agonists was determined in each experiment.

[3] = molecular target: human A2A adenosine receptors (Homo sapiens, UniProt P29274); test: Competitive radioligand binding, [3H]ZM241385, HEK-hA2AAdoR membranes
Protocol: Each point represents the mean±SEM of triplicates pooled from at least three experiments.
ZM241385 was purchased from Tocris Cookson Ltd (Langford, Bristol, UK).
Competitive radiolabeling binding assays were performed to determine the binding affinities of the compounds of the invention for the adenosine receptor subtypes, A1, A2A, A2B and A3. Briefly, membrane suspensions, obtained from cells expressing either adenosine receptor subtypes A1, A2A, A2B or A3were incubated for 2 hours at room temperature in 50 mmol/L Tris-HCl buffer (pH 7.4) containing ADA (1U/mL). […] At the end of the incubation, free radioligand was separated from membrane-bound radioligand by filtration through Whatman GF/C glass fiber filters using a Brandel tissue harvester (Gaithersburg, Md.). Triplicate determinations were performed for each concentration of unlabelled compound.

[4] = molecular target: A2A adenosine receptors (PC12 cells) (Rattus norvegicus, UniProt P30543); test: Rate of decline of agonist-stimulated cAMP in PC12 cells after A2A antagonist SCH58261; conditions: agonist 1 μM, after addition of SCH58261 (20 μM)
Chain of A2A adenosine receptors (PC12 cells) (P30543 whole entry): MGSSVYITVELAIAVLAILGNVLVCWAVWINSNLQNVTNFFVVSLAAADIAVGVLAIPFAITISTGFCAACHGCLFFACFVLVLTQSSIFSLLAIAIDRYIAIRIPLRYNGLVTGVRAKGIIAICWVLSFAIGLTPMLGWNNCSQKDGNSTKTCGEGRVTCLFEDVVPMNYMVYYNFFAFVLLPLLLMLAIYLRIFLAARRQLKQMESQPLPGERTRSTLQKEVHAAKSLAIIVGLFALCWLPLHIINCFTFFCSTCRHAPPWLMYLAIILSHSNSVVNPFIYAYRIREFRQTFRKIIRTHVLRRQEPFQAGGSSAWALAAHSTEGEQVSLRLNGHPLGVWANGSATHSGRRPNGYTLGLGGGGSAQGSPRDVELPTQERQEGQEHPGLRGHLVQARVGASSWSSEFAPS

Chain of human A2A adenosine receptors (P29274 whole entry): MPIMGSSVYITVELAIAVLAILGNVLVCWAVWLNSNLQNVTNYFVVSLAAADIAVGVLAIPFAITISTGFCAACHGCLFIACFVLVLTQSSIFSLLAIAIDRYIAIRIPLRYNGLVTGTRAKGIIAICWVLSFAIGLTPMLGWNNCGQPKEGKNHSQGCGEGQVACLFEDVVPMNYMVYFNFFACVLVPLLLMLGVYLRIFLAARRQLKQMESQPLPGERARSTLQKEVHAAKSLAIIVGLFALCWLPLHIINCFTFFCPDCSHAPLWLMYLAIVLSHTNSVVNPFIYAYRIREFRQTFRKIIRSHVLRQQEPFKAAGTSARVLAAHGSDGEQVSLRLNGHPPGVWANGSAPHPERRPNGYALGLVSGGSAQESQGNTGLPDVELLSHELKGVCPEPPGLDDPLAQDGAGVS

Row | SMILES | effect on A-V nodal conduction time (A1 adenosine receptor) | maximal decrease in CR ([1]; 2.5 μg/kg iv, conscious dogs) [%] | increase in dP/dt ([1]; 2.5 μg/kg, conscious dogs) [%] | maximal decrease in CR ([1]; 5 μg/kg iv, conscious dogs) [%] | ED50 ([1]; IV bolus, conscious dogs) [mg/kg] | maximal increase in mean CBF from baseline ([1]; IV bolus, conscious dogs, baseline 45±3 ml/min) [mL/min] | changes in LVSP ([1]; increasing doses, conscious dogs (data not shown)) | increase in LVSP ([1]; 67 μg/kg, conscious dogs) [%] | increase in LVSP ([1]; 134 μg/kg, conscious dogs) [%] | maximal decrease in CR ([1]; 267 μg/kg iv, conscious dogs) [%] | increase in LVSP ([1]; 267 μg/kg, conscious dogs) [%] | increase in dP/dt ([1]; 267 μg/kg, conscious dogs) [%] | CBF (fold-increase) [2] [fold] | t0.5 reversal of increase in coronary blood flow [2] [min] | t0.9 reversal of increase in coronary blood flow [2] [min] | Ki ([3]; binding affinity in HEK cells expressing human A2A receptors (Ki)) [nM] | Ki ([3]; pKi ± SEM, HEK-hA2AAdoR, [3H]ZM241385) [nM] | t0.5, rate of decline of cAMP accumulated [4] [min]
1 | CNC(=O)c1cnn(-c2nc(N)c3ncn(C4O[C@@H](CO)[C@H](O)[C@@H]4O)c3n2)c1 (some centres unmarked) [CVT-3146] | did not prolong A-V nodal conduction time | 73±2 | 39±7 | 75±2 | 0.00034 ± 8e-05 | 154 ± 16 | did not cause significant changes in LVSP | – | – | – | – | – | – | – | – | – | – | –
2 | Nc1ncnc2c1ncn2[C@@H]1O[C@H](CO)[C@@H](O)[C@H]1O [Adenosine, adenosine, reference compound] | – | – | – | – | 0.051 ± 0.015 | – | – | 12±3 | 12±3 | 73±1 | 18±6 | 29±7 | – | – | – | – | – | –
3 | CCCCCn1cc(-c2nc(N)c3ncn(C4O[C@@H](CO)[C@H](O)[C@@H]4O)c3n2)cn1 (some centres unmarked) [CVT-3033] | did not prolong A-V nodal conduction time | – | – | – | – | – | – | – | – | – | – | – | 3.33 ± 0.58 | 3.1 ± 0.9 | 12.0 ± 1.0 | 2900 | 2880 | 1.9 ± 0.1
